Assay results taken from patent US8815857B2 (Boehringer Ingelheim International GmbH, priority 2011, dated 2014).
Values after ≈ are worked out from the molar mass of the structure shown.

Assays:
[1] = Assessment of solubility: HT solubility in pION buffer, UV spectrophotometry; conditions: for solubility: kinetic from dmso stock
[2] = biological target: T1, Recombinant human soluble guanylate cyclase (sGC), alpha 1 / beta 1 subunits, heme-free (Homo sapiens, UniProt Q02108+Q02153); assay: Molecular assay: cGMP formation by heme-free recombinant sGC (CisBio cGMP detection kit); format: biochemical; conditions: 300 pM heme-free sGC, 37° C., 60 min, cGMP readout; read-out: EC50 nM, Activity of Compounds in Molecular Assay
T1 construct: histidine tag (C); made in house; host or cells: Sf9 insect cells (baculovirus coinfection)
T1 sequence (Q02108 1-690 partner): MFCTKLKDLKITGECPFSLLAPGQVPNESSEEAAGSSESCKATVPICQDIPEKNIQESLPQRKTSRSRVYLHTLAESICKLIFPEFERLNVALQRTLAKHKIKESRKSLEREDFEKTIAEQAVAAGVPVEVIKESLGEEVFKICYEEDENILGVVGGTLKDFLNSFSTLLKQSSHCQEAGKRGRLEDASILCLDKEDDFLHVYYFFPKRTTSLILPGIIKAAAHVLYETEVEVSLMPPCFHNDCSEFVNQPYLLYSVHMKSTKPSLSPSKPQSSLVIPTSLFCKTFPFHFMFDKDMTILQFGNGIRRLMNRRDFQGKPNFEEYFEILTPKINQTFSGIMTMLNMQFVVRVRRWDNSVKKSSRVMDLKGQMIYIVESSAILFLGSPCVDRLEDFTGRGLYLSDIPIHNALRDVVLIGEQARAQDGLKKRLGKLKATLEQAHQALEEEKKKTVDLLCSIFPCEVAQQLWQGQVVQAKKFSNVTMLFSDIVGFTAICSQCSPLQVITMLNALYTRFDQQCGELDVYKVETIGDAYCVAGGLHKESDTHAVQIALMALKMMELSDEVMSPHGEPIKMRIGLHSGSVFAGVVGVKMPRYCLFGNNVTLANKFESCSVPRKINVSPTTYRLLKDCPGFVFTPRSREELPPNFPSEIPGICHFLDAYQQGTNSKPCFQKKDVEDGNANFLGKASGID
T1 sequence (Q02153 1-619): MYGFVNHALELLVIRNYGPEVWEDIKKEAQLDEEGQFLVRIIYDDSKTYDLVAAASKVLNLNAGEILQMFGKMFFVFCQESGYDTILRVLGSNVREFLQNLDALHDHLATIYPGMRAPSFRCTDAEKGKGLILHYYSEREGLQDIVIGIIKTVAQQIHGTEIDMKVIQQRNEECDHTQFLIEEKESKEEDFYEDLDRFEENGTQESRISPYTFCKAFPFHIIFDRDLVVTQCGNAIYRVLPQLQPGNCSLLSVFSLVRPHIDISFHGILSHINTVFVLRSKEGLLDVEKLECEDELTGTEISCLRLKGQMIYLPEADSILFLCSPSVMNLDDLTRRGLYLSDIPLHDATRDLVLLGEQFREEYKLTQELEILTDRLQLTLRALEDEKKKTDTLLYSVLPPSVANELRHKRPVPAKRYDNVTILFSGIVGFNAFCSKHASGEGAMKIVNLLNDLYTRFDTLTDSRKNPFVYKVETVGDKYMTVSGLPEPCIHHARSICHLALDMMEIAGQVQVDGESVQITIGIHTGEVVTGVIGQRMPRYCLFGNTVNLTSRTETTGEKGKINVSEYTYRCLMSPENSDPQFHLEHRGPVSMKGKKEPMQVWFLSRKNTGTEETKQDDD
Protocol: Recombinant human soluble guanylate cyclase (sGC) is purified from Sf9 insect cells coinfected with baculoviruses expressing the alpha 1 or beta 1 subunit of sGC, both with a C-terminal histidine tag. Heme-free sGC is prepared by treating cell lysate with a final concentration of 0.5% Tween 20 prior to purification on a nickel affinity column.
sGC catalyzes the conversion of guanosine-5′-triphosphate (GTP) to cyclic guanosine monophosphate (cGMP). The activity of sGC is measured in vitro using the commercially available CisBio cGMP detection kit (catalog # 62GM2PEB) in a 384 well format. In brief, 300 pM heme-free sGC is incubated in reaction buffer (50 mM MOPS pH 6.8, 0.2 N KOH, 50 mM NaCl, 2 mM MgCl2, 0.1% BSA, 1.25 mM IBMX, 0.25 mM TCEP, 50 nM GTP) in the presence or absence of dilutions of test compounds diluted in DMSO (final concentration of 1%) in a volume of 10 microL at 37° C. for 60 min. Undiluted reaction products or an 80-fold dilution of reaction products (10 microL of either) prepared in reaction buffer containing 0.2 mM TCEP and 10 mM EDTA is mixed with 5 microL of d2-cGMP plus 5 microL of Eu^3+ cryptate-labeled anti-cGMP, each diluted in buffer containing 0.1 M KPO4 pH 7.5, 0.4 M KF, 20 mM EDTA, 0.2% BSA. After a one h incubation at room temperature in the dark, the mixtures are quantified on an EnVision plate reader (PerkinElmer) according to manufacturer instructions (laser excitation 337 nm, emission 620 and 665 nm). The ratio at each compound concentration is converted to nM cGMP using the linear portion of a calibration curve. Log compound concentration is plotted against combined undiluted and diluted nM cGMP values to determine the EC50 for each curve.

[3] = pION system solution buffer, pH 4.5, pH 4.5, aqueous buffer, Solubility (pH 4.5), pH 4.5 buffer, 16-19 h incubation, 1.0% DMSO
[4] = pION system solution buffer, pH 7.4, pH 7.4, aqueous buffer, Solubility (pH 7.4), pH 7.4 buffer, 16-19 h incubation, 1.0% DMSO

Row | SMILES | solubility [1, 3] | solubility [1, 4] | EC50 [2] | further results
1 | Cc1cc(CN2CCS(=O)(=O)CC2)ccc1COc1ccc(Cl)cc1-c1csc(N2CCC(C(=O)O)C(C)C2)n1 (stereo not shown) [Compound 144] | – | – | 54 nM | –
2 | Cc1cc(CN2CCOCC2)ccc1COc1ccc(C#N)cc1-c1csc(C2=CCC(C(=O)O)CC2)n1 (stereo not shown) [Compound 189] | – | – | 9000 nM | –
3 | Cc1ccc(OCc2ccc(C(=O)N(C)CC3CCCCC3)cc2C)c(-c2csc(N3CCC(C(=O)O)CC3)n2)c1 [Compound 161] | – | – | 91 nM | –
4 | Cc1cc(CN2CCC(C(N)=O)CC2)ccc1COc1c(C)cccc1-c1csc(N2CCC(C(=O)O)CC2)n1 [Compound 93] | > 56 µg/mL | > 56 µg/mL | – | –
5 | CCC(=O)N1CCN(Cc2ccc(COc3ccc(C)cc3-c3csc(N4CCC(C(=O)O)CC4)n3)c(C)c2)CC1 [Compound 194] | – | – | 150 nM | –
6 | CCc1cc(C(=O)N2CCN(C)C(=O)C2)ccc1COc1ccc(C)cc1-c1csc(N2C[C@H]3CC[C@@H](C2)[C@H]3C(=O)O)n1 [Compound 295] | 0.45 µg/mL (≈ 0.747 µM) | – | – | solubility ([1]; pH 6.8, aqueous buffer, Solubility (pH 6.8), pH 6.8): 60 µg/mL (≈ 99.5 µM)
7 | Cc1cc(C(=O)N2CCCCC2)ccc1COc1ccc(Cl)cc1-c1csc(C2CCC(C(=O)O)CC2)n1 (stereo not shown) [Compound 182] | – | – | 1600 nM | –
8 | Cc1ccc(OCc2ccc(CN3CCOCC3)cc2C)c(-c2csc(N3CCC[C@@H](C(=O)O)C3)n2)c1 [Compound 19] | > 52 µg/mL | > 52 µg/mL | – | –
9 | Cc1cc(CN2CCCCC2)ccc1COc1ccc(C#N)cc1-c1csc(N2CCC(C(=O)O)CC2)n1 [Compound 169] | > 57 µg/mL | > 57 µg/mL | – | –
10 | Cc1ccc(OCc2ccc(CN3CCCCC3)cc2C)c(-c2csc(N3CCC(C(=O)O)CC3)n2)c1 [Compound 18] | > 63 µg/mL | > 63 µg/mL | – | –
11 | Cc1ccc(OCc2ccc(CN3CCOCC3)cc2C)c(-c2csc(N3CCC(C(=O)O)CC3C)n2)c1 (stereo not shown) [Compound 177] | – | – | 170 nM | –
12 | COCCCNC(=O)c1ccc(COc2ccc(C)cc2-c2csc(N3CCC(C(=O)O)CC3)n2)c(C)c1 [Compound 159] | – | – | 1900 nM | –
13 | Cc1cc(CN2CCS(=O)(=O)CC2)ccc1COc1ccccc1-c1csc(N2CC3CCC(C2)C3C(=O)O)n1 (stereo not shown) [Compound 120] | – | – | 18 nM | –
14 | Cc1ccc(OCc2ccc(C(=O)N3CCCC3)cc2C)c(-c2csc(N3CCC(C(=O)O)CC3)n2)c1 [Compound 7] | – | 42 µg/mL (≈ 80.8 µM) | – | Solubility (pH 4.5) ([1]; pH 4.5 buffer, 16-19 h incubation, 1.0% DMSO): >62 μg/mL
15 | Cc1ccc(OCc2ccc(CN3CCC(O)CC3)cc2C)c(-c2csc(N3CCC(C(=O)O)CC3)n2)c1 [Compound 175] | > 55 µg/mL | > 55 µg/mL | – | –
16 | Cc1ccc(OCc2ccc(C(=O)N(C)C)cc2C)c(-c2csc(N3CCC(C(=O)O)CC3)n2)c1 [Compound 294] | – | – | 290 nM | –
17 | Cc1cc(CN2CCCCC2)ccc1COc1c(C)cccc1-c1csc(N2CCC(C(=O)O)CC2)n1 [Compound 16] | > 51 µg/mL | 33 µg/mL (≈ 63.5 µM) | – | –
18 | Cc1cc(CN2CCOCC2)ccc1COc1ccc(F)cc1-c1csc(C2CCC(C(=O)O)CC2)n1 (stereo not shown) [Compound 190] | – | – | 2500 nM | –
19 | COCCN(C)Cc1ccc(COc2ccc(C)cc2-c2csc(N3CCC(C(=O)O)CC3)n2)c(C)c1 [Compound 27] | > 63 µg/mL | > 63 µg/mL | – | –
20 | Cc1ccc(OCc2ccc(CN3CCOCC3)cc2C)c(-c2csc(N3CCC(C(=O)O)C(C(F)(F)F)C3)n2)c1 (stereo not shown) [Compound 213] | 32 µg/mL (≈ 54.3 µM) | 41 µg/mL (≈ 69.5 µM) | – | –
21 | Cc1cc(CN2CCOCC2)ccc1COc1ccc(Cl)cc1-c1csc(C2=CCC(C(=O)O)CC2)n1 (stereo not shown) [Compound 188] | – | – | 830 nM | –
22 | Cc1cc(CN2CCOCC2)ccc1COc1ccc(F)cc1-c1csc(C2=CCC(C(=O)O)CC2)n1 (stereo not shown) [Compound 191] | – | – | 530 nM | –
23 | Cc1cc(CN2CCS(=O)(=O)CC2)ccc1COc1ccc(Cl)cc1-c1csc(N2CC3C(C2)C3C(=O)O)n1 (stereo not shown) [Compound 128] | 0.45 µg/mL (≈ 0.765 µM) | > 58 µg/mL | – | –
24 | Cc1ccc(OCc2ccc(C(=O)N(C)CCN(C)C)cc2C)c(-c2csc(N3CCC(C(=O)O)CC3)n2)c1 [Compound 160] | – | – | 2800 nM | –

Further lines, with some results ahead:

Row | solubility [1, 3] | solubility [1, 4] | EC50 [2] | SMILES | further results
25 | > 60 µg/mL | > 60 µg/mL | 7800 nM | Cc1cc(CN2CCOCC2)ccc1COc1ccc(C#N)cc1-c1csc(N2CC3C(C2)C3C(=O)O)n1 (stereo not shown) [Compound 33] | –
26 | – | – | 2400 nM | Cc1cc(CN2CCOCC2)ccc1COc1ccccc1-c1csc(C2=CCC(C(=O)O)CC2)n1 (stereo not shown) [Compound 193] | –
27 | – | – | 1800 nM | Cc1cc(C(=O)N2CCCCC2)ccc1COc1ccc(C#N)cc1-c1csc(C2=CCC(C(=O)O)CC2)n1 (stereo not shown) [Compound 184] | –
28 | – | – | 1100 nM | Cc1cc(CN2CCS(=O)(=O)CC2)ccc1COc1ccc(C#N)cc1-c1csc(N2CC3C(C2)C3C(=O)O)n1 (stereo not shown) [Compound 116] | –
29 | – | – | 30 nM | Cc1ccc(OCc2ccc(CN3CCS(=O)(=O)CC3)cc2C)c(-c2csc(N3CCC(C(=O)O)CC3C)n2)c1 (stereo not shown) [Compound 124] | –
30 | 37 µg/mL (≈ 67.7 µM) | 24 µg/mL (≈ 43.9 µM) | – | Cc1cc(CN2CCC(O)CC2)ccc1COc1ccc(C#N)cc1-c1csc(N2CCC(C(=O)O)CC2)n1 [Compound 170] | –
31 | – | – | 270 nM | COCCN(C)C(=O)c1ccc(COc2ccc(C)cc2-c2csc(N3CCC(C(=O)O)CC3)n2)c(C#N)c1 [Compound 178] | –
32 | – | – | 55 nM | Cc1ccc(OCc2ccc(C(=O)N(C)C3CCCCC3)cc2C)c(-c2csc(N3CCC(C(=O)O)CC3)n2)c1 [Compound 164] | –
33 | 0.3 µg/mL (≈ 0.468 µM) | > 63 µg/mL | – | Cc1cc(CN2CCS(=O)(=O)CC2)ccc1COc1ccc(F)cc1-c1csc(N2CCC(C(=O)O)C(C(F)(F)F)C2)n1 (stereo not shown) [Compound 155] | –
34 | – | – | 2700 nM | Cc1cc(CN2CCOCC2)ccc1COc1ccccc1-c1csc(N2CCC(C(=O)O)C(C(F)(F)F)C2)n1 (stereo not shown) [Compound 185] | –
35 | – | – | 160 nM | Cc1ccc(OCc2ccc(CN3CCOCC3)cc2C)c(-c2csc(N3CC[C@H](C(=O)O)[C@H](C)C3)n2)c1 [Compound 176] | –
36 | – | – | 4400 nM | Cc1cc(C(=O)N2CCCCC2)ccc1COc1ccc(C#N)cc1-c1csc([C@H]2CC[C@H](C(=O)O)CC2)n1 [Compound 183] | –
37 | – | – | 390 nM | Cc1cc(CN2CCOCC2)ccc1COc1ccc(Cl)cc1-c1csc(N2CC3C(C2)C3C(=O)O)n1 (stereo not shown) [Compound 187] | –
38 | – | – | 750 nM | Cc1ccc(OCc2ccc(C(=O)NC3CCCCC3)cc2C)c(-c2csc(N3CCC(C(=O)O)CC3)n2)c1 [Compound 163] | –
39 | – | – | 83 nM | Cc1ccc(OCc2ccc(CN3CCN(C(=O)C(C)(C)C)CC3)cc2C)c(-c2csc(N3CCC(C(=O)O)CC3)n2)c1 [Compound 195] | –
40 | – | – | 71 nM | COCCCN(C)C(=O)c1ccc(COc2ccc(C)cc2-c2csc(N3CCC(C(=O)O)CC3)n2)c(C)c1 [Compound 162] | –
